Data set [1] in a line: Viability by trypan blue exclusion, U937 cells. The class given is cell-based, human. The protocol: (§1) EL-4 lymphoma cells were suspended in RPMI 1640 at 5,000,000/ml with 500,000 cells per well. Various concentrations of cecropin SB-37 and Shiva 1 were added and the wells incubated at 37° C. in a 5% CO2 atmosphere for one hour. Viability was determined by microscopic observation for trypan blue exclusion.
(§2) This procedure was repeated with 100 μM cecropin SB-37 using non-adherent normal human lymphocytes, Daudi human Burkitt's lymphoma cells, KG-1 human leukemia cells, U937 human monocytic leukemia cells, and SP2 murine myeloma cells, and determining viability by the trypan blue exclusion method at 15, 30 and 60 minutes following addition of the peptide.

Data set [2] can be described thus: Viability by trypan blue exclusion, Daudi cells. The class given is cell-based, human. As to conditions: 100 μM. The protocol:
as §1
(§3) The procedure of Example 5 was repeated with 50 and 200 μM cecropin SB-37 using SP2 mouse lymphoma cells, KG-1 human leukemia cells, Daudi human Burkitt's lymphoma cells, non-adherent normal human lymphocytes and adherent 3T3 […] fibroblasts. Viability was determined by microscopic observation for trypan blue exclusion.
as §2

Data set [3] has as its system Daudi human Burkitt's lymphoma cells. Nature of the data set: Viability by trypan blue exclusion, Daudi cells. The class given is cell-based. The protocol: as §1, §3, §2
The test system of data set [4] is Xanthomonas campestris pv. campestris. Description: Plant pathogen LD50 in cecropin SB-37/lysozyme. The class given is cell-based. As to conditions: incubation at 30° C.

In general, viability refers to a per cent measure of how many cells are alive, often set against a control. Low values mean more harm to the cells, high ones less harm to the cells.

Residues, ends and D or L forms follow the SMILES beside them.

Regarding `CC[C@H](C)[C@H](NC(=O)CNC(=O)[C@H](CC(N)=O)NC(=O)[C@H](CCCNC(=N)N)NC(=O)[C@@H](NC(=O)[C@H](CC(N)=O)NC(=O)[C@H](CCCNC(=N)N)NC(=O)CNC(=O)[C@H](CCSC)NC(=O)[C@H](CCCCN)NC(=O)[C@H](CCC(=O)O)NC(=O)[C@@H](NC(=O)[C@H](CCCCN)NC(=O)[C@H](CCCCN)NC(=O)[C@H](Cc1ccccc1)NC(=O)[C@@H](NC(=O)[C@H](CCCCN)NC(=O)[C@H](Cc1c[nH]c2ccccc12)NC(=O)[C@H](CCCCN)NC(=O)[C@@H]1CCCN1C(=O)[C@@H](N)CCSC)C(C)C)[C@@H](C)CC)[C@@H](C)CC)C(=O)N[C@H](C(=O)N[C@@H](CCCCN)C(=O)N[C@@H](C)C(=O)NCC(=O)N1CCC[C@H]1C(=O)N[C@@H](C)C(=O)N[C@H](C(=O)N[C@@H](C)C(=O)N[C@H](C(=O)N[C@@H](CC(C)C)C(=O)NCC(=O)N[C@@H](CCC(=O)O)C(=O)N[C@@H](C)C(=O)N[C@@H](CCCCN)C(=O)N[C@@H](C)C(=O)N[C@@H](CC(C)C)C(=O)NCC(N)=O)C(C)C)[C@@H](C)CC)C(C)C` [Cecropin SB-37] (H-MPKWKVFKKIEKMGRNIRNGIVKAGPAIAVLGEAKALG-NH2), the viability at 100 µM is 35% in data set [1] (15 min.); 25% in data set [1] (30 min.); 15% in data set [1] (60 min.); 70% in data set [2] (15 min.); 70% in data set [2] (30 min.); 65% in data set [2] (60 min.). Moreover, the “Survival (percent)” value is recorded as 85% in data set [3] (50 μM) and 0% in data set [3] (100 μM). In addition, the LD50 in data set [4] stood at 0.57 µM.

These data come from US6440935B1, “Inhibition of eucaryotic pathogens and neoplasms and stimulation of fibroblasts and lymphocytes with lytic peptides” (priority 1987, dated 2002).
